The target of one data set is BCL2 (Homo sapiens (Human), UniProt P10415). The data set can be described thus: Molecular level activity test of anti-apoptotic protein BCL2 (HTRF, binding to Bim peptide). The settings on record: HTRF, binding of BCL2 to Bim peptide; read-out: BCL2 nM (inhibitory activity, IC50). Put shortly:
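HTRF binding of His-tagged recombinant BCL2 to biotin-tagged Bim peptide, compound in 2% DMSO. After 1 h reaction, anti-His and streptavidin-XL665 detection reagents were added and incubated 4 h at room temperature before reading.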

The target in a further data set is BCL2 (G101V) (Homo sapiens (Human), UniProt P10415, G101V). In words: Molecular level activity test of anti-apoptotic protein BCL2 (G101V) (HTRF, binding to Bim peptide). To be noted: inhibition of BCL2 (G101V) binding to Bim peptide, read-out: BCL-2 (G101V). Put shortly: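 His-tagged recombinant BCL2 (G101V) incubated 1 h with biotin-BIM peptide and compound (2% DMSO), then anti-His and streptavidin-XL665 detection reagents added for 4 h at room temperature. HTRF signal reflects compound effect on BCL2–BIM binding.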

The target of a further data set is BCL2 (D103Y) (Homo sapiens (Human), UniProt P10415, D103Y). In words: Molecular level activity test of BCL2 (D103Y) (HTRF, binding to Bim peptide). The settings on record: read-out: BCL-2 (D103Y) (nM) (inhibitory activity, IC50). In outline: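 His-tagged recombinant protein mixed with biotinylated BIM peptide and compound (2% DMSO), reacted 1 h. Anti-His and streptavidin-XL665 detection reagents then added and incubated 4 h at room temperature before HTRF read-out of binding inhibition.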

In data set [1] the test system is RS4; 11 cells. In words: Tumor proliferation inhibitory activity test (MTS) on RS4; 11. The format is cell-based. To be noted: 3 days incubation. Put shortly: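 RS4;11 cells were exposed to serially diluted compound (0.2% DMSO control) for 3 days at 37 °C/5% CO2, followed by MTS for 3–4 h. Read-out was OD490−OD690, and inhibition was calculated relative to the DMSO and blank wells.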

A further data set concerns the target BCL-XL (Homo sapiens (Human), UniProt Q07817). The data set can be described thus: BCL-XL enzyme molecular level activity test (HTRF, binding to BIM peptide). The settings on record: binding of BCL-XL to BIM peptide, read-out: BCL-XL inhibitory activity (IC50). In outline:
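HTRF binding assay: His-tagged recombinant BCL-XL with biotin-BIM peptide and compound (2% DMSO), 1 h. Anti-His and streptavidin-XL665 detection reagents added, 4 h at room temperature. Excitation 320 nm; 665/615 nm ratio reflects binding, with no-protein background and no-compound full-binding controls.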

The test system of a further data set is human platelets. In words: Platelet viability test (CTG). The format is cell-based. The settings on record: CTG after 24 h. As to the method: After 10 mL of platelet-rich plasma was added to 30 mL of ACD-A solution and uniformly mixed, centrifugation was performed at 1200 g, and the supernatant was discarded; 10 mL of ACD-A solution was added, resuspended, uniformly mixed, and centrifuged at 1200 g for 10 min, and the supernatant was discarded. 5 mL of HEPES-Tyrode's buffer containing 1 μM PGE1 and 0.2 U/mL apyrase was added, slightly inverted, and then centrifuged at 800 g for 5 min, and the supernatant was discarded. 10 mL of HEPES-Tyrode's buffer containing 1 μM PGE1 and 0.2 U/mL apyrase was added, resuspended, and centrifuged at 1000 g for 5 min, and the supernatant was discarded. 2 mL of HEPES-Tyrode's buffer containing 1 μM PGE1+10% FBS-resuspended platelets was added, 200 μL was taken into a centrifuge tube and diluted to 2 mL. Then it was diluted to 1, 0.8, 0.6, 0.4, 0.2, 0.1, 0.08, 0.06, 0.04, 0.02, 0.01 times, the volume was complemented to 100 μL, and 50 μL of CTG reagent was added to detect cell viability. The maximum valid dilution with a fluorescence value not exceeding […] was selected for dilution, 90 μL/well was connected to a 96-well cell plate for chemiluminescence detection. A compound was prepared with HEPES-Tyrode's buffer containing 1 μM of PGE1+10% FBS, and added to the cells, which was gently beaten evenly and detected for cell viability by adding 50 μL CTG after 24 h.

For the next data set, the target named is human CYP3A4 enzyme (Homo sapiens (Human), UniProt P08684). In words: CYP3A4 enzyme inhibitory activity (Vivid CYP3A4 Green screening kit). The settings on record: read-out: CYP3A4 (IC50); Vivid CYP3A4 Green screening kit.
human CYP3A4 enzyme, sequence (P08684 whole entry): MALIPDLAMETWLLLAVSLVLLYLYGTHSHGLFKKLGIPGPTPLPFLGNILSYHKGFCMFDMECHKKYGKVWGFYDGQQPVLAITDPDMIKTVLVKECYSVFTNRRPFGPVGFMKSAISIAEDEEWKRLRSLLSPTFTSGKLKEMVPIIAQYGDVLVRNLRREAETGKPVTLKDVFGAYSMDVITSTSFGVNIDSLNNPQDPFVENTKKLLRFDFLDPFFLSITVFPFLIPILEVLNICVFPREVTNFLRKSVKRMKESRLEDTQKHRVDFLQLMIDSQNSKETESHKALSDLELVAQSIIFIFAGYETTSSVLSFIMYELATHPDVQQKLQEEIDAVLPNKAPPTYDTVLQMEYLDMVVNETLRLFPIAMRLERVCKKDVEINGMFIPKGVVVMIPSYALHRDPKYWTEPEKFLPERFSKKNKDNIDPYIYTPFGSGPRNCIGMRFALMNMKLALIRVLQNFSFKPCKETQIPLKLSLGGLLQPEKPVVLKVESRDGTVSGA
The nature of a further data set: Rat absorption test. The settings on record: Sprague-Dawley, plasma, po, 10 mg/kg.
Data set [2] deals with RS4; 11 cells. The data set can be described thus: In vivo anti-tumor efficacy, RS4; 11 subcutaneous transplanted tumor model. The settings on record: 11 transplanted tumor, NOD/SCID mice, after 8 days. An excerpt:
Tumor models were established by subcutaneous inoculation of RS4; 11 cells into NOD/SCID mice. When the tumors grew to about 100 mm^3, the mice were divided into groups and administered as follows: The control group was given a corresponding volume of CMC-Na solution by gavage; […]; the weight and tumor size changes of the mice were weighed twice a week, and after 8 days, the efficacy of the compounds on RS4; 11 mice transplanted tumors was investigated.
The relative tumor proliferation rate T/C %=TRTV/CRTV×100% (TRTV: average RTV of the treatment group; CRTV: average RTV of the negative control group). Based on the results of tumor measurements, the relative tumor volume (RTV) was calculated using the formula RTV=Vt/V0, where V0 was the tumor volume measured during group division (i.e. D0), Vt was the tumor volume at a certain measurement, and TRTV and CRTV used the data of the same day.

Read-outs that look alike come from different tables or passages of the source.

BCL-XL, sequence (Q07817 whole entry): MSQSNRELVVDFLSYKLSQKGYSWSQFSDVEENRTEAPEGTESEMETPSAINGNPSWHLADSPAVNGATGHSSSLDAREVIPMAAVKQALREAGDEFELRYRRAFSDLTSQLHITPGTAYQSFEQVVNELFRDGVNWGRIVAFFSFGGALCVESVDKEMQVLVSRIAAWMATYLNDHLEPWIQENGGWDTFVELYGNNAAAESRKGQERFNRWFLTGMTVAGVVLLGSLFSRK
Procedure for Rat absorption test: Experimental method: SD rats were used as experimental animals and administered 10 mg/kg by gavage. The blood collection time points for gavage administration were 0, 0.5, 1, 2, 3, 4, 6, 8, and 24 hours. 3 mL of whole blood was collected, and after centrifugation, 1 mL of plasma was taken for LC-MS analysis.
Procedure for human CYP3A4 enzyme: The inhibitory activity of compounds on human CYP3A4 enzyme was detected using a VIVID™ CYP3A4 GREEN SCRNING KIT reagent kit. The Vivid™ CYP450 screening kit includes a Vivid™ substrate, Vivid™ fluorescence standard, reaction buffer, Vivid™ regeneration system, NADP+ and CYP450 BACULOSOMES™ Plus reagent. Operations were performed following the instructions, and a blank control group was set up without adding any compounds.
The IC50 value of the compounds inhibiting human CYP3A4 enzyme was calculated using Graphpad Prism 7.00 software through the formula Y=100/(1+10^((Log IC50−X)*HillSlope)).

In the case of `COc1ccc(CN2CCN(C3CC4(CCN(c5cc(Oc6cnc7[nH]ccc7c6)c(C(=O)NS(=O)(=O)c6ccc(NCC7(F)CCOCC7)c([N+](=O)[O-])c6)cc5F)CC4)C3)[C@H](c3ccccc3C(C)C)C2)cc1OC` [compound 197, (R)-2-((1H-pyrrolo[2,3-b]pyrid-5-yl)oxy)-4-(2-(4-(3,4-dimethoxybenzyl)-2-(2-isopropylphenyl)piperazin-1-yl)-7-azaspiro[3.5]non-7-yl)-5-fluoro-N-((4-(((4-fluorotetrahydro-2H-pyran-4-yl)methyl)amino)-3-nitrophenyl)sulfonyl)benzamide], the IC50 is below 10 nM on BCL2; below 10 nM at BCL2 (G101V); below 10 nM on BCL2 (D103Y); below 0.5 nM with RS4; 11 cells [1] (Homo sapiens, RS4-11, 72 h); above 1 µM on BCL-XL (values given in μM); above 5000 nM with human platelets. For the same compound, the IC50 on human CYP3A4 enzyme is above 20000 nM.

Turning to `CC(C)c1ccccc1[C@@H]1CN(Cc2cnn(C)c2)CCN1C1CC2(CCN(c3cc(Oc4cnc5[nH]ccc5c4)c(C(=O)NS(=O)(=O)c4ccc(NCC5(F)CCOCC5)c([N+](=O)[O-])c4)cc3F)CC2)C1` [compound 209, (R)-2-((1H-pyrrolo[2,3-b]pyrid-5-yl)oxy)-5-fluoro-N-((4-(((4-fluorotetrahydro-2H-pyran-4-yl)methyl)amino)-3-nitrophenyl)sulfonyl)-4-(2-(2-(2-isopropylphenyl)-4-((1-methyl-1H-pyrazole-4-yl)methyl)piperazin-1-yl)-7-azaspiro[3.5]non-7-yl)benzamide], the IC50 on BCL2 was below 10 nM; on BCL2 (G101V), below 10 nM; on BCL2 (D103Y), below 10 nM; with RS4; 11 cells [1] (Homo sapiens, RS4-11, 72 h), below 0.5 nM; at BCL-XL (values given in μM) it was 1.9 µM; in the data set on human platelets, above 5000 nM. The IC50 on human CYP3A4 enzyme is above 20000 nM.

Turning to `COc1ccc(CN2CCN(C3CC4(CCN(c5cc(Oc6cnc7[nH]ccc7c6)c(C(=O)NS(=O)(=O)c6ccc(NCC7(F)CCOCC7)c([N+](=O)[O-])c6)cc5F)CC4)C3)[C@H](c3ccccc3C(C)C)C2)cn1` [compound 242, (R)-2-((1H-pyrrolo[2,3-b]pyrid-5-yl)oxy)-5-fluoro-N-((4-(((4-fluorotetrahydro-2H-pyran-4-yl)methyl)amino)-3-nitrophenyl)sulfonyl)-4-(2-(2-(2-isopropylphenyl)-4-((6-methoxypyrid-3-yl)methyl)piperazin-1-yl)-7-azaspiro[3.5]non-7-yl)benzamide], the IC50 at BCL2 was below 10 nM; at BCL2 (G101V) it was below 10 nM; at BCL2 (D103Y) it was below 10 nM; with RS4; 11 cells [1] (Homo sapiens, RS4-11, 72 h), below 0.5 nM; on BCL-XL (values in nM), above 0.5 µM; in the data set with human platelets, above 5000 nM. Besides, at human CYP3A4 enzyme, the IC50 was above 20000 nM.

In the case of `COc1ccc(CN2CCN(C3CC4(CCN(c5cc(Oc6cnc7[nH]ccc7c6)c(C(=O)NS(=O)(=O)c6ccc(NC[C@H]7CC[C@](C)(O)CC7)c([N+](=O)[O-])c6)cn5)CC4)C3)[C@H](c3ccccc3C(C)C)C2)cc1` [compound 256, 4-((1H-pyrrolo[2,3-b]pyrid-5-yl)oxy)-N-((4-((((1r, 4r)-4-hydroxy-4-methylcyclohexyl)methyl)amino)-3-nitrophenyl)sulfonyl)-6-(2-((R)-2-(2-isopropylphenyl)-4-(4-methoxybenzyl)piperazin-1-yl)-7-azaspiro[3.5]non-7-yl) nicotinamide], the IC50 was below 10 nM at BCL2; below 10 nM at BCL2 (G101V); below 10 nM on BCL2 (D103Y); below 0.5 nM in the data set on RS4; 11 cells [1] (Homo sapiens, RS4-11, 72 h); above 20000 nM on human CYP3A4 enzyme. For the same compound, the area under the curve (AUC) in the data set “Rat absorption test” came out at 1800 ng·h/mL.

Regarding `COc1ccc(CN2CCN(C3CC4(CCN(c5ccc(C(=O)NS(=O)(=O)c6cc([N+](=O)[O-])c(NCC7(F)CCOCC7)c7[nH]cnc67)c(Oc6cnc7[nH]ccc7c6)c5)CC4)C3)[C@H](c3ccccc3C(C)C)C2)cc1` [compound 261, (R)-2-((1H-pyrrolo[2,3-b]pyrid-5-yl)oxy)-N-((7-(((4-fluorotetrahydro-2H-pyran-4-yl)methyl)amino)-6-nitro-1H-benzo[d]imidazol-4-yl)sulfonyl)-4-(2-(2-(2-isopropylphenyl)-4-(4-methoxybenzyl)piperazin-1-yl)-7-azaspiro[3.5]non-7-yl)benzamide], the IC50 on BCL2 was below 10 nM; on BCL2 (G101V), below 10 nM; at BCL2 (D103Y), below 10 nM; in the data set with RS4; 11 cells [1] (Homo sapiens, RS4-11, 72 h) it was below 0.5 nM; at human CYP3A4 enzyme, above 20000 nM. In the data set with RS4; 11 cells [2] (15 mg/kg by gavage), this compound registered a T/C % of 5.35%. The AUC in “Rat absorption test” came to 1210 ng·h/mL.

As for `COc1ccc(CN2CCN(C3CC4(CCN(c5cc(Oc6cnc7[nH]ccc7c6)c(C(=O)NS(=O)(=O)c6cc([N+](=O)[O-])c(NC[C@H]7CC[C@](C)(O)CC7)c7[nH]cnc67)cn5)CC4)C3)[C@H](c3ccccc3C(C)C)C2)cc1` [compound 266, 4-((1H-pyrrolo[2,3-b]pyrid-5-yl)oxy)-N-((7-((((1r,4r)-4-hydroxy-4-methylcyclohexyl)methyl)amino)-6-nitro-1H-benzo[d]imidazol-4-yl)sulfonyl)-6-(2-((R)-2-(2-isopropylphenyl)-4-(4-methoxybenzyl)piperazin-1-yl)-7-azaspiro[3.5]non-7-yl) nicotinamide], the IC50 is below 10 nM on BCL2; below 10 nM at BCL2 (G101V); below 10 nM at BCL2 (D103Y); below 0.5 nM in the data set on RS4; 11 cells [1] (Homo sapiens, RS4-11, 72 h); above 20000 nM at human CYP3A4 enzyme. In the data set on RS4; 11 cells [2] (5 mg/kg by gavage), this compound had a T/C % of 15.38%.

Regarding “(R)-2-((1H-pyrrolo[2,3-b]pyrid-5-yl)oxy)-5-fluoro-N-((4-(((4-fluorotetrahydro-2H-pyran-4-yl)methyl)amino)-3-nitrophenyl)sulfonyl)-4-(2-(2-(2-isopropylphenyl)-4-(4-methoxybenzyl)piperazin-1-yl)-7-azaspiro[3.5]non-7-yl)benzamide [compound 152]”, the IC50 on BCL2 was below 10 nM; at BCL2 (G101V), below 10 nM; on BCL2 (D103Y), below 10 nM; in the data set on RS4; 11 cells [1] it was below 0.5 nM; on BCL-XL (values given in μM), above 1 µM; with human platelets, above 5000 nM. This compound also displayed a T/C % with RS4; 11 cells [2] (5 mg/kg by gavage) of 0.35%.

Values taken from patent publication US20250034135A1, “ANTI-APOPTOTIC PROTEIN BCL-2 INHIBITOR, PHARMACEUTICAL COMPOSITION AND USES THEREOF” (HANGZHOU HEALZEN THERAPEUTICS CO., LTD., priority 2021, published 2025).
